Data taken from ChEMBL document CHEMBL4393702, “Structure-activity relationship and synthetic methodologies of α-santonin derivatives with diverse bioactivities: A mini-review” (Eur J Med Chem, 2019).
In brackets after ≈: the same amount, converted by molar mass.

What was measured:
[1] = target: T1, Polyunsaturated fatty acid 5-lipoxygenase (Homo sapiens, UniProt P09917); test: Inhibition of 5-LOX (unknown origin)
T1 sequence (P09917 whole entry): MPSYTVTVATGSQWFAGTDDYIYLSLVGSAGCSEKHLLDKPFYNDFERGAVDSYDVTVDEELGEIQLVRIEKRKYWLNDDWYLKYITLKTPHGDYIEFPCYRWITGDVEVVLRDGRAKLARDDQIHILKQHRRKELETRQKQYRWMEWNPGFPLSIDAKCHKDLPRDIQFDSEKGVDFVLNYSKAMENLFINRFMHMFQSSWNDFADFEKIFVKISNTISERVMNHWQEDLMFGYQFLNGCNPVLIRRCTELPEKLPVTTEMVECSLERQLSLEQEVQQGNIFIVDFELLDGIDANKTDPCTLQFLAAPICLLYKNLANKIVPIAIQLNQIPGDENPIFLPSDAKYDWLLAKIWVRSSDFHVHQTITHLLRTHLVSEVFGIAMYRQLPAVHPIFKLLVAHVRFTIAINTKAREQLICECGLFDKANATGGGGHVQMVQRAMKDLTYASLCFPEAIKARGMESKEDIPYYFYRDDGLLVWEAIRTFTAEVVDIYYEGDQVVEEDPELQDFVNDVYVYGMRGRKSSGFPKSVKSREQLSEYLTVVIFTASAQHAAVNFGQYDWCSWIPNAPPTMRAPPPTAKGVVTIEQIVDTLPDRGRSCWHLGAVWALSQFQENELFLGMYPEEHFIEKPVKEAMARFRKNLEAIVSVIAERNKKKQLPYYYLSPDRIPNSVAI

[2] = target: T1, Polyunsaturated fatty acid 5-lipoxygenase; test: Inhibition of 5-LOX in polymorphonuclear leucocytes (unknown origin); format: cell-based
[3] = tested on: Trypanosoma brucei brucei; test: Antitrypanosomal activity against Trypanosoma brucei brucei GUTat 3.1 after 72 hrs by Alamar Blue assay; format: functional, organism-based; conditions: GUTat 3.1, 72 h
[4] = Cytotoxicity against human […] cells assessed as reduction in cell viability after 72 hrs by Alamar Blue assay; format: functional, cell-based
Melanoma cell line = test: Growth inhibition of human Melanoma cells after 48 hrs by MTT assay; format: functional
[5] = Growth inhibition of human Caov cells after 48 hrs by MTT assay; format: functional
[6] = target: T2, Peroxisome proliferator-activated receptor gamma (Homo sapiens, UniProt P37231); test: Agonist activity at GAL4- fused PPARgamma LBD (unknown origin) expressed in African green monkey COS7 cells by luciferase reporter gene assay; format: cell-based
T2 sequence (P37231 whole entry): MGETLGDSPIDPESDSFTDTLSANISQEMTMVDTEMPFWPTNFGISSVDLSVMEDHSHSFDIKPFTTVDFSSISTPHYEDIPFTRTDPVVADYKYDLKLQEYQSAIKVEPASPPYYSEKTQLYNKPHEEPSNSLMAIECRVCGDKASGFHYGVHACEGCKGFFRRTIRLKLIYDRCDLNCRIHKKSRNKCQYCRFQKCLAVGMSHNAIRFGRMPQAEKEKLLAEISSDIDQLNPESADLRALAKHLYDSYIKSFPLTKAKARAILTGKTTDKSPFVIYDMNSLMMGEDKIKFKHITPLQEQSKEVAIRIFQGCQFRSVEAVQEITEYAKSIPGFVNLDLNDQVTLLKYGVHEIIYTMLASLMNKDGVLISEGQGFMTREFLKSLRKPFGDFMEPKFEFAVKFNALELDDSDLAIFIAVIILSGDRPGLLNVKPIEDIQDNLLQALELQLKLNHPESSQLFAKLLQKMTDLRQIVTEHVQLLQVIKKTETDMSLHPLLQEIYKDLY

[7] = Anticancer activity against human IMR13 cells assessed as reduction in cell viability incubated for 1 hr by SRB assay; format: functional, cell-based
THP-1 = test: Anticancer activity against human THP1 cells assessed as reduction in cell viability incubated for 1 hr by SRB assay; format: functional, cell-based; conditions: THP-1, 1 h
A549 = test: Anticancer activity against human A549 cells assessed as reduction in cell viability incubated for 1 hr by SRB assay; format: functional, cell-based; conditions: A549, 1 h
HCT-116 = test: Anticancer activity against human HCT116 cells assessed as reduction in cell viability incubated for 1 hr by SRB assay; format: functional, cell-based; conditions: HCT-116, 1 h
HT-29 = test: Cytotoxicity against human HT-29 cells assessed as reduction in cell viability incubated for 72 hrs by MTT assay; format: functional, cell-based; conditions: HT-29, 72 h
HONE1 cell line = test: Cytotoxicity against human HONE1 cells assessed as reduction in cell viability incubated for 72 hrs by MTT assay; format: functional, cell-based; conditions: HONE1, 72 h
P388 = test: Cytotoxicity against mouse P388 cells assessed as reduction in cell viability incubated for 72 hrs by MTT assay; format: functional, cell-based; conditions: P388, 72 h

Structure (SMILES) | IC50 [1] [nM] | IC50 [2] [nM] | GI50 (Melanoma cell line) [nM] | GI50 [5] [nM] | further results
CCCOc1cc(C)c2c(c1C)C[C@H]([C@@H](C)C(=O)Nc1ncc(C)s1)CC2 | 800 | 1000 |  |  | 
C[C@@H]1C(=O)O[C@H]2[C@H]1CC[C@@]1(C)CCC(=O)[C@](C)(OO)[C@@H]21 |  |  |  |  | EC50 [3]: 0.4 µg/mL (≈ 1.42 µM); EC50 [4]: 64.2 µg/mL (≈ 227 µM)
CCCOc1cc(C)c2c(c1C)C[C@H]([C@@H](C)C(=O)Nc1ccccn1)CC2 | 6000 | 900 |  |  | 
COc1ccc(N2CCN(C[C@@H]3C(=O)O[C@@H]4C5=C(C)C(=O)C=C[C@]5(C)CC[C@@H]34)CC2)cc1 |  |  | 3000 | 3000 | 
CC1=C2[C@H]3OC(=O)[C@@H](CN4CCCC(C)(C)C4)[C@@H]3CC[C@@]2(C)C=CC1=O |  |  | 3000 | 2000 | 
CC1=C2[C@H]3OC(=O)[C@@H](CN4CCOCC4)[C@@H]3CC[C@@]2(C)C=CC1=O |  |  | 3000 | 4000 | 
CCCOc1cc(C)c2c(c1C)C[C@H]([C@H](C)C(=O)O)CC2 |  |  |  |  | EC50 [6]: 15000 nM
CC1=C2[C@H]3OC(=O)[C@@H](CN4CCN(Cc5ccc6c(c5)OCO6)CC4)[C@@H]3CC[C@@]2(C)C=CC1=O |  |  | 2000 | 4000 | 
CCCOc1cc(C)c2c(c1C)C[C@H]([C@@H](C)C(=O)NCc1cccs1)CC2 | 3000 | 8000 |  |  | 
CC1=C2C(=O)[C@H]([C@@H](C)C(=O)OCc3ccccc3)CC[C@@]2(C)C=CC1Cc1ccccc1 (stereo partly drawn) |  |  |  |  | IC50 [7]: 230 nM; IC50 (THP-1): 510 nM; IC50 (A549): 300 nM; IC50 (HCT-116): 600 nM
CCCN(CCC)C[C@@H]1C(=O)O[C@@H]2C3=C(C)C(=O)C=C[C@]3(C)CC[C@@H]12 |  |  | 4000 | 2000 | 
C[C@@H]1C(=O)O[C@H]2C3=CC(=O)C[C@@H](O)[C@]3(C)CC[C@@H]12 |  |  |  |  | IC50 (HT-29): 3100 to 6900 nM; IC50 (HONE1 cell line): 3100 to 6900 nM; IC50 (P388): 3100 to 6900 nM
CCCOc1cc(C)c2c(c1C)C[C@H]([C@@H](C)C(=O)Nc1nccs1)CC2 | 1000 | 800 |  |  | 
